The results in this text go back to PubChem BioAssay (NCI).

Where “and” joins values, the source holds several entries; their conditions need not be identical. Equal values may be shown once.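 Results reflect a 48-hour exposure of cells in 96-well plates to compound at five concentrations. GI50 is the concentration that inhibits growth by half. TGI denotes the concentration required for complete inhibition of growth.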 Bounds are passed on as bounds.

What all share (test): NCI tumour cell line growth inhibition, 48 h
In assay [1] the test system is NCI-H23 lung.
Assay [2] concerns HL-60(TB) leukemia.
Assay [3] concerns KM12 colon.
Assay [4] has as its system A549 NSCLC.
Assay [5] relates to K-562 leukemia.
In assay [6] the test system is CCRF-CEM leukemia.
The test system of assay [7] is SK-MEL-28 melanoma.
Assay [8] concerns DU-145 prostate.
The subject of assay [9] is SR leukemia.
Assay [10] relates to BT-549 breast.

For `NC(=S)N1N=C2CCCCCC[C@@H]2[C@H]1c1ccccc1`, the TGI was greater than 100 µM in [1]; 51.7 µM in assay [2]; greater than 100 µM in assay [3]; greater than 100 µM in [4]; greater than 100 µM in [5]; greater than 100 µM in assay [6]. This compound also displayed a TGI in assay [7] greater than 100 µM.
As to `O=[N+]([O-])c1nccn1CC(O)c1ccccc1` (stereo not drawn), the TGI in [1], in assay [2], in [3], in [4], in assay [5] and in assay [6] was greater than 100 µM in each case. The same compound returned a TGI in assay [7] greater than 100 µM.
For the compound `NC(=O)c1cc(N2CC2)c([N+](=O)[O-])cc1[N+](=O)[O-]`, the GI50 in assay [1], in assay [2], in [3], in [5] and in assay [6] was greater than 200 µM each time. Further, the TGI in assay [1], in assay [2], in assay [8], in assay [3], in assay [4] and in assay [9] was greater than 200 µM in each case. Moreover, the TGI in assay [5], in assay [6] and in assay [7] was greater than 200 µM each time.
On to `O=C(CC1(O)C(=O)Nc2c(Cl)cc(Cl)cc21)c1ccccc1` (stereo not drawn), for which the TGI in assay [1], in assay [2], in assay [4], in assay [5] and in assay [7] was greater than 100 µM each time.
With `COC(=O)CCC(=O)Nc1ccc(Cl)cc1C`, the TGI was greater than 100 µM in [1]; 13.6 µM in [2]; greater than 100 µM in assay [3]; greater than 100 µM in assay [4]; greater than 100 µM in [9]; greater than 100 µM in assay [5]. Moreover, the TGI in assay [6] and in assay [7] was greater than 100 µM each time.
On to `CC(=O)OC12C(C)=C(C)C(=O)N1c1ccccc1N2C(C)=O` (stereo not drawn), for which the TGI in assay [1], in assay [2], in assay [3], in assay [4], in [9] and in assay [5] was greater than 100 µM throughout. The TGI in assay [6] and in assay [7] was greater than 100 µM each time.
For the compound `CSC(=NC(=O)c1ccccc1Cl)SCCSC(=NC(=O)c1ccccc1Cl)SC`, the TGI in assay [1], in assay [2], in assay [3], in [4], in assay [5] and in assay [6] was greater than 100 µM throughout. The same compound gave a TGI in assay [7] greater than 100 µM.
Consider `Cc1cccc(-c2nnc3s/c(=C\c4ccc(N(C)C)cc4)c(=O)n23)c1`, for which the TGI in assay [1], in assay [2], in [3], in assay [4], in assay [5] and in [6] was greater than 100 µM throughout. In addition, the TGI in assay [7] is greater than 100 µM.
With `COc1ccc(CC(=O)NCCc2ccc(OC)c(OC)c2OC)cc1`, the TGI in assay [1], in assay [3], in [4], in [9], in assay [5] and in assay [6] was greater than 100 µM each time. Further, the TGI in assay [7] is greater than 100 µM.
Consider `O=C(C[n+]1ccccc1)N/N=C(/CCC(=O)N(Cc1ccccc1)Cc1ccccc1)CC(=O)c1ccccc1`, for which the TGI in assay [1], in [2], in assay [3], in assay [4], in assay [9] and in [5] was greater than 100 µM each time. In addition, the TGI in assay [6] and in assay [7] was greater than 100 µM throughout.
Consider `O=C1c2ccccc2-c2c3c(cc4ccnc1c24)OCO3`, for which the TGI in [1] is 25.9 µM and 17.4 µM; in [2], 15.6 µM; in [3] it was greater than 100 µM; in [4], 14.3 µM and 17.4 µM; in [5] it was > 100 µM and 15 µM; in assay [6], 39 µM and 20.7 µM. Besides, the TGI in assay [7] is 30.7 µM and > 100 µM.
As to `C=C(C)[C@@H]1CC[C@]2(CO)CC[C@]3(C)[C@H](CC[C@@H]4[C@@]5(C)CCCNC(C)(C)[C@@H]5CC[C@]43C)[C@@H]12`, the GI50 was 1.71 µM in [1]; 1.63 µM in assay [8]; 1.73 µM in [3]; 1.73 µM in [4]; 1.08 µM in assay [5]; 2.07 µM in assay [6]. The GI50 in assay [7] was 1.62 µM. Further, the TGI in [1] came to 3.39 µM; in assay [8], 3.02 µM; in assay [3] it was 3.24 µM; in assay [4] it was 3.24 µM; in assay [5], 3.79 µM; in assay [6], 4.91 µM. In [7], this compound had a TGI of 3.16 µM.
With `C[C@@H]1C[C@H](N)C[C@H](c2ccncc2NC(=O)c2ccc(F)c(-c3c(F)cccc3F)n2)C1`, the GI50 in assay [2] is 2.73 µM and 1.48 µM; in assay [8], 13.5 µM and > 10 µM; in assay [3], 12.3 µM and > 10 µM; in assay [4], 15.9 µM and > 10 µM; in assay [5], 4.1 µM and 4.22 µM; in assay [10], 10.3 µM and 5.17 µM. Also, the GI50 in [7] was 10.4 µM and > 10 µM. In addition, the TGI in assay [2] is 12.1 µM and > 10 µM; in assay [8], 26.3 µM and > 10 µM; in [3], 27.7 µM and > 10 µM; in assay [4], 31.6 µM and > 10 µM; in assay [5], 21.3 µM and > 10 µM; in [10], 22.6 µM and > 10 µM. Also, in [7], the TGI was 22.6 µM and > 10 µM.
As to `COc1ccc(C(=O)C2CCC(C(=O)O)C2)cc1` (stereo not drawn), the TGI in [1], in [2], in [3], in assay [4], in [9] and in [5] was greater than 100 µM each time. The TGI in assay [6] and in assay [7] was greater than 100 µM in each case.
With `COc1ccc(NC(=O)Oc2ccc3c(C)cc(=O)oc3c2)c(OC)c1` (tested in a mixture with another compound), the TGI in [1], in assay [8], in assay [3], in assay [4] and in [7] was greater than 100 µM each time.
In the case of `CCOC(=O)C12CCCC1(O)N(NC(=O)OC)C(C)=C2C(=O)OC` (stereo not drawn), the TGI in assay [1] was greater than 100 µM; in [2], greater than 100 µM; in assay [3], greater than 10 µM; in assay [4], greater than 100 µM; in assay [5] it was greater than 100 µM; in assay [6], greater than 100 µM. The compound also had a TGI in assay [7] greater than 100 µM.
